Series [1] relates to Plasmodium falciparum. The experiment in a line: Hit confirmation in dose-response curve in NF54 nanoGlo assay, at 72h. It counts as functional, organism-based, Erythrocyte. Further details: timepoint 72 hour. The conditions noted are these: Plasmodium falciparum, NF54, Erythrocyte, 72 h.
The test system of series [2] is Plasmodium falciparum. Put plainly: Hit confirmation in dose-response curve in NF54 nanoGlo assay, at 12h. It counts as functional, organism-based, Erythrocyte. Further details: timepoint 12 hour. The conditions noted are these: Plasmodium falciparum, NF54, Erythrocyte, 12 h.
Series [3] is described as follows: Re-testing in dose-response curve in HepG2 cytotoxicity assay, at 72h. It counts as toxicity, cell-based. Further details: timepoint 72 hour. As to conditions: human, HepG2 cells.
The test system of series [4] is Plasmodium falciparum. Put plainly: Hit confirmation in dose-response curve in NF54 pLDH assay, at 72h. It counts as functional, organism-based. The conditions noted are these: NF54, Erythrocyte. Set-up: timepoint 72 hour.
The subject of series [5] is Plasmodium falciparum. Put plainly: Re-testing in dose-response curve in 3D7 pLDH assay, at 72h. It counts as functional, organism-based. Set-up: timepoint 72 hour. The conditions noted are these: 3D7, Erythrocyte.
The test system of series [6] is Plasmodium falciparum. Put plainly: Hit confirmation in dose-response curve in Dd2 pLDH assay, at 72h. It counts as functional, organism-based. Further details: timepoint 72 hour. The conditions noted are these: Dd2, Erythrocyte.
Series [7] in a line: Hit confirmation in dose-response curve in HepG2 cytotoxicity assay, at 72h. The conditions noted are these: human, HepG2 cells. Further details: timepoint 72 hour. It counts as toxicity, cell-based.

Our source for the IC50 values is ChEMBL document CHEMBL4888484, “Replenishing the malaria drug discovery pipeline: Screening and hit evaluation of the MMV Hit Generation Library 1 (HGL1) against asexual blood stage Plasmodium falciparum ,using a nano luciferase reporter read-out” (2022).

Each structure is given as a SMILES string. pIC50: −log10 of the molar value. Where only a bound is given, the exact number is not on record here.

By pIC50 is commonly meant the negative decadic logarithm of the IC50, by convention in mol/L. Low values mean a large IC50, high ones a small IC50. One may read the IC50 as the concentration needed to halve the response being measured. As to `Cc1c([C@@H](NCc2ncccc2O)C(C)C)oc2ccccc12`, the negative logarithm of the IC50 (pIC50) in the series with Plasmodium falciparum [1] is 6.56; in the series on Plasmodium falciparum [2], 6.39; with Plasmodium falciparum [4], 6.08; with Plasmodium falciparum [5], 6.54; with Plasmodium falciparum [6], 6.22. Besides, the IC50 at 72 h in series [3] is more than 25 µM; in series [7], more than 10 µM.

For `CCN1CCN(c2cccc(NC(=O)c3ccc4[nH]c5ccccc5c(=O)c4c3)c2)CC1`, the negative logarithm of the IC50 (pIC50) in the series on Plasmodium falciparum [1] was 6.02; with Plasmodium falciparum [2], 5.32; in the series with Plasmodium falciparum [4], 5.77; in the series on Plasmodium falciparum [5], approximately 6.34; in the series on Plasmodium falciparum [6], 5.93. The IC50 at 72 h in series [3] was 7.42 µM; in series [7], more than 10 µM.

Regarding `c1cc(N2CC[C@@]3(CCCNC3)C2)c2sccc2n1`, the negative-log IC50 (pIC50) with Plasmodium falciparum [1] is 6.32; with Plasmodium falciparum [2], 6.21; with Plasmodium falciparum [4], 6.41; in the series on Plasmodium falciparum [5], 6.24; in the series on Plasmodium falciparum [6], 6.40. Besides, the values for the half-maximal inhibitory concentration (IC50) at 72 h in series [3] and in series [7] were more than 14.2 µM and more than 10 µM, respectively.

`CCn1cnc2c(N3CCC[C@H](c4ccncc4)C3)ncnc21`: the negative logarithm of the IC50 (pIC50) with Plasmodium falciparum [1] is 6.00; with Plasmodium falciparum [2], 5.05; with Plasmodium falciparum [4], 6.10; in the series on Plasmodium falciparum [5], 6.18; in the series on Plasmodium falciparum [6], 6.15. Further, the IC50 at 72 h in series [3] is more than 25 µM; in series [7], more than 10 µM.

Take `CCCCN(CC)CCNC(=O)C1CCN(C2=NS(=O)(=O)C(c3ccc(OC)cc3)=C2C)CC1`: the negative logarithm of the IC50 (pIC50) in the series on Plasmodium falciparum [1] was 5.52; with Plasmodium falciparum [2], less than 5.00; in the series on Plasmodium falciparum [4] it was 5.92; in the series with Plasmodium falciparum [5], 6.15; in the series on Plasmodium falciparum [6] it was 5.88. The 50% inhibitory concentration (IC50) at 72 h is more than 25 µM in series [3] and more than 10 µM in series [7].

Regarding `COc1ccc2nc(O)c(C(=O)Nc3ccc4c(c3F)CCNC4)cc2c1`, the pIC50 in the series on Plasmodium falciparum [1] was 6.11; with Plasmodium falciparum [2] it was 5.84; with Plasmodium falciparum [4], 5.96; with Plasmodium falciparum [5], 6.07; in the series on Plasmodium falciparum [6] it was 6.00. Further, the concentration for half-maximal inhibition (IC50) at 72 h in series [3] worked out at 2.27 µM; in series [7], 5.62 µM.

For the molecule `C[C@H]1CCN(c2nc(-c3ccccn3)nc3c2CCC3)C1`, the negative-log IC50 (pIC50) with Plasmodium falciparum [1] was 6.16; with Plasmodium falciparum [2], 5.69; in the series on Plasmodium falciparum [4], 5.89; with Plasmodium falciparum [5], 5.67; in the series on Plasmodium falciparum [6], 5.91. The 50% inhibitory concentration (IC50) at 72 h in series [3] is 4.75 µM; in series [7], more than 10 µM.

On to `COc1ccnc(CN2CCC[C@H](c3nc(-c4ccccc4)c[nH]3)C2)c1OC`, for which the pIC50 was 5.84 in the series on Plasmodium falciparum [1]; 5.31 in the series on Plasmodium falciparum [2]; 5.75 in the series with Plasmodium falciparum [4]; 4.81 with Plasmodium falciparum [5]; 5.77 in the series with Plasmodium falciparum [6]. Further, the results for the IC50 at 72 h in series [3] and in series [7] were 10.2 µM and more than 10 µM, respectively.

With `CN1CC[C@]2(CCN(c3ccnc4ccsc34)C2)C1`, the pIC50 was 6.26 with Plasmodium falciparum [1]; 6.04 with Plasmodium falciparum [2]; 6.42 with Plasmodium falciparum [4]; 6.34 with Plasmodium falciparum [5]; 6.39 with Plasmodium falciparum [6]. Further, the IC50 at 72 h in series [3] was more than 24.8 µM; in series [7], more than 10 µM.

For `NC(=NCc1cccc2cccnc12)N1CCN(c2nccs2)CC1`, the pIC50 in the series with Plasmodium falciparum [1] is 5.77; with Plasmodium falciparum [2], less than 5.00; with Plasmodium falciparum [4], 6.35; with Plasmodium falciparum [5], 6.15; in the series on Plasmodium falciparum [6], 6.30. Moreover, the half-maximal inhibitory concentration (IC50) at 72 h is more than 25 µM in series [3] and more than 10 µM in series [7].

On to `N#Cc1cc(S(=O)(=O)NCCN(C2CC2)S(=O)(=O)c2ccc(Cl)c(C#N)c2)ccc1Cl`, for which the negative logarithm of the IC50 (pIC50) is 5.69 in the series on Plasmodium falciparum [1]; 5.55 in the series with Plasmodium falciparum [2]; 5.48 in the series on Plasmodium falciparum [4]; 5.96 in the series with Plasmodium falciparum [5]; 5.70 with Plasmodium falciparum [6]. In addition, the IC50 at 72 h in series [3] was 13.6 µM; in series [7], more than 10 µM.

For `Clc1cccc(CNCCCNc2ccncc2)c1Cl`, the pIC50 is 5.70 in the series with Plasmodium falciparum [1]; 5.12 in the series with Plasmodium falciparum [2]; 5.70 in the series with Plasmodium falciparum [4]; 5.94 with Plasmodium falciparum [5]; 5.81 in the series with Plasmodium falciparum [6]. Moreover, the concentration for half-maximal inhibition (IC50) at 72 h in series [3] is 16.3 µM; in series [7], more than 10 µM.

Turning to `CCC1=C(c2ccc(C)cc2)S(=O)(=O)N=C1N1CCC(C(=O)NCCN2CCCC[C@@H]2C)CC1`, the pIC50 was 5.57 with Plasmodium falciparum [1]; less than 5.00 in the series with Plasmodium falciparum [2]; 5.87 in the series on Plasmodium falciparum [4]; 6.28 in the series with Plasmodium falciparum [5]; 5.85 in the series with Plasmodium falciparum [6]. Besides, the IC50 at 72 h in series [3] is more than 25 µM; in series [7], more than 10 µM.

In the case of `Oc1ccccc1-c1cnc(C(F)(F)F)s1`, the pIC50 in the series with Plasmodium falciparum [1] is 6.11; in the series with Plasmodium falciparum [2], 5.88; in the series with Plasmodium falciparum [4], 5.98; in the series on Plasmodium falciparum [5], 5.30; in the series with Plasmodium falciparum [6], 5.99. Besides, the values for the half-maximal inhibitory concentration (IC50) at 72 h in series [3] and in series [7] were 19.4 µM and more than 10 µM, respectively.

Consider `Oc1ccccc1CCN[C@H]1CCc2ccc(F)cc21`, for which the negative-log IC50 (pIC50) in the series with Plasmodium falciparum [1] was 6.71; with Plasmodium falciparum [2], 6.59; in the series on Plasmodium falciparum [4], 6.51; with Plasmodium falciparum [5], 6.37; in the series on Plasmodium falciparum [6], 6.57. The IC50 at 72 h in series [3] is more than 25 µM; in series [7] it was more than 10 µM.

With `CCOc1cccc(-c2ccc3nc(-c4cccc(OC)c4)c(CCC(=O)NCCN4CCCC4)n3c2)c1`, the negative logarithm of the IC50 (pIC50) in the series with Plasmodium falciparum [1] is 6.51; with Plasmodium falciparum [2], 5.14; in the series with Plasmodium falciparum [4] it was 6.55; with Plasmodium falciparum [5], 7.26; in the series on Plasmodium falciparum [6], 5.92. Moreover, the results for the IC50 at 72 h in series [3] and in series [7] were 15.9 µM and more than 10 µM, respectively.

With `CCOC(=O)c1c(CN2CCCC2)n(C)c2cc(-c3cccnc3)c(O)c(Cn3ccnc3)c12`, the negative logarithm of the IC50 (pIC50) with Plasmodium falciparum [1] was 6.84; with Plasmodium falciparum [2] it was less than 5.00; in the series with Plasmodium falciparum [4] it was 6.76; with Plasmodium falciparum [5], 5.44; in the series with Plasmodium falciparum [6] it was 6.88. The concentration for half-maximal inhibition (IC50) at 72 h in series [3] was more than 25 µM; in series [7], more than 10 µM.

Regarding `CC1(C)OCc2cc(CNc3ccc4oc(=O)[nH]c4c3)ccc2O1`, the pIC50 in the series with Plasmodium falciparum [1] is 6.26; in the series on Plasmodium falciparum [2], 6.07; in the series on Plasmodium falciparum [4] it was 6.12; with Plasmodium falciparum [5] it was 6.57; in the series with Plasmodium falciparum [6] it was 6.18. Besides, the results for the concentration for half-maximal inhibition (IC50) at 72 h in series [3] and in series [7] were 20.4 µM and more than 10 µM, respectively.

With `Cc1nc(N)nc(C)c1C(=O)Nc1ccc(Nc2ncccn2)cc1`, the negative-log IC50 (pIC50) is 5.83 in the series with Plasmodium falciparum [1]; less than 5.00 in the series on Plasmodium falciparum [2]; 5.75 in the series with Plasmodium falciparum [4]; 5.84 with Plasmodium falciparum [5]; 5.77 with Plasmodium falciparum [6]. The IC50 at 72 h was more than 25 µM in series [3] and more than 10 µM in series [7].

For `CN(C)Cc1ccc(NC(=O)c2cc(F)cc3c(=O)c4cc(F)ccc4[nH]c23)cc1`, the negative-log IC50 (pIC50) was 6.28 in the series with Plasmodium falciparum [1]; less than 5.00 in the series on Plasmodium falciparum [2]; 5.92 in the series with Plasmodium falciparum [4]; approximately 6.42 with Plasmodium falciparum [5]; 6.15 in the series with Plasmodium falciparum [6]. The concentration for half-maximal inhibition (IC50) at 72 h in series [3] is 2.86 µM; in series [7], more than 10 µM.

Take `COc1ccc(CC(=O)Nc2cc(C)n(-c3cccc(Cl)c3)n2)cc1`: the pIC50 is 5.81 in the series with Plasmodium falciparum [1]; 5.19 with Plasmodium falciparum [2]; 5.55 with Plasmodium falciparum [4]; 6.12 in the series on Plasmodium falciparum [5]; 5.81 with Plasmodium falciparum [6]. The IC50 at 72 h was more than 25 µM in series [3] and more than 10 µM in series [7].
